Data from US5149702A, “Cycloheptenopyridine derivatives, process for preparation thereof and antiulcer agents containing the same” (Toa Eiyo Ltd., priority 1990, dated 1992).
Where a name gives a salt, the structure may show the parent alone.

Tests used:
[1] = test system: gastric acid secretion; test: Inhibitory Effect on Gastric Acid Secretion in Ghosh-Schild Rats; assay type: in vivo, rat (male Wistar-KV); conditions: 180 minutes after administration
Description: (a) Inhibitory Effect on Gastric Acid Secretion in Ghosh-Schild Rats Each of male Wistar-KV rats was fasted for 24 hours, and a trachea cannula was set up under urethane anesthesia. The abdomen was incised, a double cannula was set up at the forestomach, and then the abdomen was closed. The gastric acid secretion was stimulated by intravenous infusion of […]. Physiological saline was perfused into the stomach through the double cannula at a rate of 1 ml/min., and the effluent was collected every 10 minutes. The acidity of the effluent was measured, using an automatic titrator, by titrating the effluent with 1/100N sodium hydroxide to pH 7. When the acid secretion had reached a stable plateau, the test drug was intravenously administered, and the gastric acid secretion was measured 3 hours after the test drug administration. The antisecretory effect was expressed as percentages of the secretory amount before administration of the test compound. Inhibition percentages at 180 minutes after the administrations are shown.

[2] = test system: gastric lesion induced by ethanol; test: Inhibitory Effect on Formation of Gastric Lesion Induced by Ethanol; assay type: in vivo, rat (male Wistar); conditions: P.O., 30 minutes before 1 ml of 99.5% ethanol orally, lesions 1 hour after ethanol
Description: (b) Inhibitory Effect on Formation of Gastric Lesion Induced by Ethanol
Male Wistar rats weighing 170 to 270 g were used. Each of the rats was placed in separate cages to deprive of food but allowed free access to water for 4 hours. Test drugs or the control drug were orally administered respectively in amounts of 3, 10 and 30 mg/kg, and 30 minutes thereafter 1 ml of 99.5% ethanol were orally administered respectively. One hour after the ethanol administration the rats were sacrificed by cervical vertebrae dislocation, and the stomachs were removed with 8 ml of 1% formalin and put into 1% formalin for 30 minutes to fix the gastric wall. After the fixing, each stomach was opened along the greater curvature, and then after the mucosal surface was washed with tap water, the total length lesions generated at the glandub portion was determined as an ulcer index.
The antiulcer effect by the test drug was expressed by the ED50 value (the dose of the test compound to inhibit the ulcer by 50% to the ulcer index of the non-treated group). Only the solvent was administered to the non-treated group.

Row | SMILES | Inhibiting action of gastric acid secretion (rat i.v.), 1 mg/kg [1] [%] | Inhibiting action of gastric acid secretion (rat i.v.), 3 mg/kg [1] [%] | Inhibiting action of gastric acid secretion (rat i.v.), 1 mg/kg ([1]; sodium salt) [%] | ED50 value (dose of the test compound to inhibit the ulcer by 50% to the ulcer index of the non-treated group) ([2]; rat, sodium salt) [mg/kg] | ED50 ([2]; Rattus norvegicus, po, read-out: ED50 value (dose of the test compound to inhibit the ulcer by 50% to the ulcer index of the non-treated group)) [mg/kg]
1 | COc1ccc2[nH]c([S+]([O-])C3CCCCc4c(OC)ccnc43)nc2c1 (centres unmarked) [Example 63, 9-(5-Methoxybenzimidazole-2-yl)sulfinyl-4-methoxy-2,3-cycloheptenopyridine] | 45.7 | 73.8 | – | – | –
2 | COc1ccnc2c1CCCCC2[S+]([O-])c1nc2ccccc2[nH]1 (centres unmarked) [Example 68, 9-(Benzimidazole-2-yl)sulfinyl-4-methoxy-2,3-cycloheptenopyridine sodium salt] | – | – | 54.9 | 10.9 | –
3 | Cc1ccc2[nH]c([S+]([O-])C3CCCCc4cccnc43)nc2c1 (centres unmarked) [Example 75, 9-(5-Methylbenzimidazole-2-yl)sulfinyl-2,3-cycloheptenopyridine] | – | 42.1 | – | – | –
4 | COc1ccnc2c1CCCCC2[S+]([O-])c1nc2ccccc2[nH]1 (centres unmarked) [Example 77, 9-(Benzimidazole-2-yl)sulfinyl-4-methoxy-2,3-cycloheptenopyridine] | 44.7 | 74.7 | – | – | 13
5 | COc1ccnc2c1CCCCC2[S+]([O-])c1nc2cc(F)ccc2[nH]1 (centres unmarked) [Example 78, 9-(5-Fluorobenzimidazole-2-yl)sulfinyl-4-methoxy-2,3-cycloheptenopyridine] | 65.4 | 82.9 | – | – | –
6 | COCCOc1ccnc2c1CCCCC2[S+]([O-])c1nc2ccccc2[nH]1 (centres unmarked) [Example 96, 9-(Benzimidazole-2-yl)sulfinyl-4-(2-methoxyethoxy)-2,3-cycloheptenopyridine] | 38.6 | 57.4 | – | – | –
7 | COc1c(C)cnc2c1CCCCC2[S+]([O-])c1nc2ccccc2[nH]1 (centres unmarked) [Example 109, 9-(Benzimidazole-2-yl)sulfinyl-4-methoxy-3-methyl-2,3-cycloheptenopyridine] | – | 77.6 | – | – | –
8 | COc1ccc2[nH]c([S+]([O-])Cc3ncc(C)c(OC)c3C)nc2c1 (centres unmarked) [Omeprazole, reference compound] | 36.9 | – | – | – | –
